Entries after “also recorded” stand apart in the source; their conditions may differ.

Here are results for one molecule from US8173693B2, “Benzenesulfonamide derivatives and pharmaceutical composition thereof” (Purzer Pharmaceutical Co., Ltd., priority 2010, dated 2012).

The test system of one test is 4T1-Luc cells. Nature of the test: In vivo evaluation, long-time treatment, mice implanted with 4T1-Luc cells. How it is done: GM119 (25 mg/kg) and Taxol (10 mg/kg) were simultaneously applied to a mouse implanted with 4T1-Luc cells for a long time to observe the effect of GM119 on the 4T1-Luc cells.
A suspension of 4T1-Luc cells in matrigel was injected into the breast adipocyte to obtain mice implanted with luciferase tumor cells. […] When the size of the tumor cells was achieved to 200-500 mm^3, the mice were divided into […], and the number of the mice in each group is ≧5. Then, 0/0, 0/25, 10/[…], or 10/0 mg/kg of Taxol/GM119 was abdominal-injected into the mice every two days until death of the mice, wherein GM119 and Taxol were dissolved in cremophor, and the volume of injection to each mouse is 50 μl. The weight and the number of the mice were recorded every day to analyze the change on the weight and the survival time of the mice. After the drugs were applied to the mice, the size of the tumor cells in the mice was evaluated with bioluminescence every two days.

The subject of test [1] is lung carcinoma A549 cells. Nature of the test: SRB assay. The test is classed as cell-based. Conditions: Homo sapiens, 48 hr. A general note: In SRB staining, fixed cells bind dye roughly in proportion to their protein.
In test [2] the test system is Human colorectal adenocarcinoma HT-29 cells. As to the kind of experiment: SRB assay. The test is classed as cell-based. The conditions noted are these: 48 hr.
Test [3] deals with lung carcinoma A549 cells. As to the kind of experiment: In vitro migration assay (scratch). The test is classed as cell-based. The conditions noted are these: 0, 0.5, or 10 μM, 18 hr, microscope images. How it is done:
Lung carcinoma A549 cells (BCRC 60074; BCRC) were maintained in RPMI 1640 supplied with 10% fetal bovine serum and maintained in a humidified chamber at 37° C. containing 5% CO2. All the cell lines were developed for two generations every week.
In the in vitro migration assay, a scratch was mechanically made on the monolayer of cells to form a line-shaped scratch with cytological exfoliation. The scratch may lead the edge of the cell monolayer to close.
When the monolayered A549 cells were saturated, a scratch was made using a 200-μL tip directly on the monolayer of the A549 cells. Cells were then treated with GM119 with a concentration of 0, 0.5, or 10 μM. After incubation for 18 hr, all the migrations were tracked with a microscope.

The subject of test [4] is Human hepatoblastoma HepG2 cells. As to the kind of experiment: MTT assay. It counts as cell-based. The conditions noted are these: 72 hr, read-out: IC50 HepaG2. How it is done:
(§1) Human Bladder Cancer TSGH cells, Human hepatoblastoma HepG2 cells, Human colorectal adenocarcinoma HT-29 cells, human nasopharyngeal carcinoma KB cells, Human gastric adenocarcinoma AGS cells, Human breast carcinoma MCF-7 cells, lung carcinoma A549 cells, and Human prostate carcinoma PC-3 cells were used in the preliminary cytotoxicity assays of the benzenesulfonamide derivatives of the present invention, and the inhibition activity against the tumor cells was evaluated.
(§2) All cell lines were maintained in RPMI 1640 supplied with 10% fetal bovine serum and maintained in a humidified chamber at 37° C. containing 5% CO2. Then, all cell lines were treated with compounds for 72 hr and subsequently incubated with 0.4 mg/mL of MTT at 37° C. for 2 hr. The medium was removed, and DMSO was added to dissolve MTT precipitate. Cell proliferation was determined by measuring the optical density at 540 nm using a Thermomax microplate reader (Molecular Devices, Sunnyvale, Calif.), and the IC50 values of the benzenesulfonamide derivatives of the present invention were calculated.

In test [5] the test system is Human gastric adenocarcinoma AGS cells. As to the kind of experiment: MTT assay. The conditions noted are these: 72 hr. It counts as cell-based. Here is the method: as §1, §2
(Tetrazolium dyes change colour on reduction, which living cells bring about.)

Test [6] deals with A549 non-small cell lung cancer. As to the kind of experiment: MTT assay. The test is classed as cell-based. Conditions: Homo sapiens, 72 hr. Here is the method:
as §1, §2

The subject of test [7] is Human prostate carcinoma PC-3 cells. Nature of the test: MTT assay. The test is classed as cell-based. Conditions: 72 hr. Here is the method:
as §1, §2

Test [8] deals with human nasopharyngeal carcinoma KB cells. Nature of the test: MTT assay. The test is classed as cell-based. Here is the method: as §1, §2
For test [9], the system named is Human breast carcinoma MCF-7 cells. As to the kind of experiment: MTT assay. Conditions: MCF7, 72 hr. The test is classed as cell-based. Here is the method:
as §1, §2

Test [10] has as its system Human Bladder Cancer TSGH cells. Nature of the test: MTT assay. It counts as cell-based. Conditions: 72 hr. Here is the method:
as §1, §2

For test [11], the system named is Human colorectal adenocarcinoma HT-29 cells. As to the kind of experiment: MTT assay. It counts as cell-based. The conditions noted are these: 72 hr. How it is done:
as §1, §2

The subject of test [12] is MCF-7/ADR multidrug-resistant breast cancer. As to the kind of experiment: SRB assay. It counts as cell-based. The conditions noted are these: Homo sapiens, NCI/ADR-RES. Here is the method:
(§3) All cell lines were maintained in RPMI 1640 supplied with 10% fetal bovine serum into 96-well microtiter plates and maintained in a humidified chamber at 37° C. containing 5% CO2. After 24 hr, cell lines in partial wells were fixed in situ with 10% trichloroacetic acid (TCA) to represent a measurement at the time of drug addition (T0). Then, cell lines in other wells were incubated with the benzenesulfonamide derivatives of the present invention for an additional 48 hr, and fixed in situ with 10% TCA to represent a measurement at the time of stopping reaction (Tx). After rinsing the plates with PBS and air-drying, 0.4% sulforhodamine B solution (weight per volume in 1% acetic acid) was added to each well and the plates were incubated for 10 min at room temperature. Unbound sulforhodamine B was removed with 1% acetic acid and the plates were air-dried. Cells bound with sulforhodamine B was subsequently solubilized with 10 mM Tris base (Trizma; Sigma). Cell proliferation was determined by measuring the optical density at 515 nm using a Thermomax microplate reader (Molecular Devices, Sunnyvale, Calif.). The half-inhibition concention (GI50) of the benzenesulfonamide derivatives of the present invention was obtained from the detected optical density.

A further test concerns HeLa Cervical cancer. Nature of the test: SRB assay. The test is classed as cell-based. The conditions noted are these: Homo sapiens, 48 hr. How it is done: as §3
Test [13] concerns H1299 non-small cell lung cancer. Nature of the test: SRB assay. The test is classed as cell-based. Conditions: Homo sapiens, NCI-H1299, 48 hr. Here is the method:
as §3

Test [14] deals with CL1-5 non-small cell lung cancer. As to the kind of experiment: SRB assay. Conditions: 48 hr. The test is classed as cell-based. Here is the method: as §3
The next test concerns tumor cells. As to the kind of experiment: Preliminary cytotoxicity assays (MTT, SRB), tumor cell panel. It counts as cell-based. Conditions: comparison over Tables 1-4. Here is the method: as §1, §2
as §3, with “After rinsing the plates with PBS and air-drying, 0.4% sulforhodamine B solution (weight per volume in 1% acetic acid) was added to each well and the plates were incubated for 10 min at room temperature. Unbound sulforhodamine B was removed with 1% acetic acid and the plates were air-dried. Cells bound with sulforhodamine B was subsequently solubilized with 10 mM Tris base (Trizma; Sigma).” left out

In the case of `COc1ccc(S(=O)(=O)Nc2cccc3c2[nH]c2c(C)ccc(C)c23)cc1` [Compound 6c, N-(5,8-Dimethyl-9H-carbazol-1-yl)-4-methoxybenzenesulfonamide], the “survival of the mice” value in the test on 4T1-Luc cells (long time: Taxol 10 mg/kg and/or GM119 25 mg/kg abdominal-injected every two days until death, FIG. 3) is on record as “the survival time of the mice is the longest”. Further, the “growth of the tumor cells (bioluminescence)” value with 4T1-Luc cells (long-time treatment) was “the growth of the tumor cells can be inhibited”. For the same molecule, the IC50 in [1] is 10000 nM; in test [2] it was 9000 nM; in [4], 400 nM; in test [5], 1400 nM; in test [6], 1120 nM; in test [7], 240 nM. In addition, the IC50 was 800 nM in test [8] (Homo sapiens, KB, MTT assay, 72 hr); 240 nM in test [9]; 500 nM in [10]; 400 nM in test [11]. The “inhibition on the migration of the A549 cells” value in test [3] was “the inhibition on the migration of the A549 cells was greater as the concentration of the GM119 was increased”. Moreover, the “inhibitory activity against KB cells compared with E7070” value in test [8] (own MTT value vs literature value) was “has higher inhibitory activity against KB cells than E7070”. Moreover, the GI50 in test [12] is 390 nM; in the test on HeLa Cervical cancer, 190 nM; in test [13], 460 nM; in test [14], 260 nM. Further, in the test with tumor cells, the “inhibitory activity against the tumor cells (in words)” value is on record as “has the best inhibition activity; also recorded: has the highest inhibitory activity”.

A word on the IC50: it is the concentration that gives 50% inhibition. In general, GI50 refers to the concentration that inhibits growth by half.
